This is an account of results in PubChem BioAssay AID192 (DTP/NCI, 2004).

In this assay the test system is BDF1 mice, B16 melanoma ip, median survival T/C. In words: NCI In Vivo Anticancer Drug Screen. Data for tumor model B16 Melanoma (intraperitoneal) in B6D2F1 (BDF1) mice. Conditions: endpoint: median survival time, higher = longer survival. The gist of the method: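 Each result divides a survival or tumor-size measurement in the compound-treated group by the same measurement in the vehicle group.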

The mark [1] stands for this setting: dose: 0.09 mg/kg/injection, schedule: Q01DX009 (ip), vehicle: Klucel (hydroxypropylcellulose) (HPC).
Where [2] appears, read: dose: 100.0 mg/kg/injection, schedule: Q01DX009 (ip), vehicle: Klucel (hydroxypropylcellulose) (HPC).
Where [3] appears, read: dose: 200.0 mg/kg/injection, schedule: Q01DX009 (ip), vehicle: Klucel (hydroxypropylcellulose) (HPC).
Where [4] appears, read: dose: 6.25 mg/kg/injection, schedule: Q01DX009 (ip), vehicle: Klucel (hydroxypropylcellulose) (HPC).
The mark [5] stands for this setting: dose: 12.5 mg/kg/injection, schedule: Q01DX009 (ip), vehicle: Klucel (hydroxypropylcellulose) (HPC).
The mark [6] stands for this setting: dose: 25.0 mg/kg/injection, schedule: Q01DX009 (ip), vehicle: Klucel (hydroxypropylcellulose) (HPC).
[7] abbreviates: dose: 50.0 mg/kg/injection, schedule: Q01DX009 (ip), vehicle: Klucel (hydroxypropylcellulose) (HPC).
Setting [8] is: dose: 50.0 mg/kg/injection, schedule: Q01DX009 (ip), vehicle: saline with Tween-80.
Setting [9] is: dose: 100.0 mg/kg/injection, schedule: Q01DX009 (ip), vehicle: saline with Tween-80.
The mark [10] stands for this setting: dose: 200.0 mg/kg/injection, schedule: Q01DX009 (ip), vehicle: saline with Tween-80.
The mark [11] stands for this setting: dose: 12.5 mg/kg/injection, schedule: Q01DX009 (ip), vehicle: saline with Tween-80.
[12] abbreviates: dose: 25.0 mg/kg/injection, schedule: Q01DX009 (ip), vehicle: saline with Tween-80.
[13] abbreviates: dose: 6.25 mg/kg/injection, schedule: Q01DX009 (ip), vehicle: saline.
Setting [14] is: dose: 12.5 mg/kg/injection, schedule: Q01DX009 (ip), vehicle: saline.
Setting [15] is: dose: 25.0 mg/kg/injection, schedule: Q01DX009 (ip), vehicle: saline.
Setting [16] is: dose: 50.0 mg/kg/injection, schedule: Q01DX009 (ip), vehicle: saline.
Setting [17] is: dose: 100.0 mg/kg/injection, schedule: Q01DX009 (ip), vehicle: saline.
[18] abbreviates: dose: 6.25 mg/kg/injection, schedule: Q01DX009 (ip), vehicle: saline with Tween-80.

“And” between values parts separate entries of the source, which are not always exact repeats. Equal values may be shown once. Toxic doses and inconclusive results are not listed.

Turning to `C=C1C(=O)OC2CC1CCC1(C)OC1CCC(C)=CCCC2(C)O` (configuration not stated), the T/C runs as follows: (dose: 0.04 mg/kg/injection, schedule: Q01DX009 (ip), vehicle: Klucel (hydroxypropylcellulose) (HPC)) 90 % of control; under setting [1], 91 % of control; (dose: 1.8 mg/kg/injection, schedule: Q01DX009 (ip), vehicle: Klucel (hydroxypropylcellulose) (HPC)) 86 % of control and 91 % of control; (dose: 7.5 mg/kg/injection, schedule: Q01DX009 (ip), vehicle: Klucel (hydroxypropylcellulose) (HPC)) 98 % of control.
Regarding `Cc1ccc(NC(=O)c2ccccc2C(=O)O)cc1Cl`, the T/C is, setting by setting: under setting [2], 94 % of control; under setting [3], 94 % of control.
With `CC(=O)OCC1OC(OC2=C(CC=C(C)C)C(=O)c3ccccc3C2=O)C(OC(C)=O)C(OC(C)=O)C1OC(C)=O` (configuration not stated), the T/C reads like this: under setting [4], 95 % of control and 98 % of control; under setting [5], 87 % of control; under setting [6], 87 % of control; under setting [7], 88 % of control and 91 % of control; under setting [2], 92 % of control.
On to `CCC(C)C(NC=O)C(=O)O` (configuration not stated), for which the T/C reads like this: under setting [8], 97 % of control; under setting [9], 95 % of control; under setting [10], 92 % of control; (dose: 400.0 mg/kg/injection, schedule: Q01DX009 (ip), vehicle: saline with Tween-80) 91 % of control.
Take `COC1/C=C\C=C(/C)C(=O)Nc2cc3nc4cccc(Br)c4oc-3c(c2=O)CC(C)CC(OC)C(O)C(C)/C=C(\C)C1OC(N)=O` (configuration not stated): the T/C by setting is: (dose: 12.5 mg/kg/injection, schedule: Q01DX005 (ip), vehicle: other) 103 % of control; (dose: 25.0 mg/kg/injection, schedule: Q01DX005 (ip), vehicle: other) 98 % of control; (dose: 50.0 mg/kg/injection, schedule: Q01DX005 (ip), vehicle: other) 108 % of control; (dose: 100.0 mg/kg/injection, schedule: Q01DX005 (ip), vehicle: other) 107 % of control; (dose: 200.0 mg/kg/injection, schedule: Q01DX005 (ip), vehicle: other) 94 % of control.
As for `CCC1CCCCC1(O)CC` (configuration not stated), the T/C is, setting by setting: under setting [7], 98 % of control; under setting [2], 99 % of control.
For `CCC(C)Nc1ccc(N)cc1` (configuration not stated), the T/C reads like this: under setting [1], 97 % of control; (dose: 0.18 mg/kg/injection, schedule: Q01DX009 (ip), vehicle: Klucel (hydroxypropylcellulose) (HPC)) 99 % of control; (dose: 0.37 mg/kg/injection, schedule: Q01DX009 (ip), vehicle: Klucel (hydroxypropylcellulose) (HPC)) 89 % of control; (dose: 0.75 mg/kg/injection, schedule: Q01DX009 (ip), vehicle: Klucel (hydroxypropylcellulose) (HPC)) 99 % of control.
For the molecule `CCCn1cnc2c(=S)nc[nH]c21`, the T/C is, setting by setting: under setting [11], 120 % of control; under setting [12], 116 % of control; under setting [8], 106 % of control.
As for `CN=C(N)Nc1ccc(C(=O)Oc2ccc([N+](=O)[O-])cc2)cc1`, the T/C is, setting by setting: under setting [5], 103 % of control; under setting [6], 102 % of control; under setting [7], 104 % of control; under setting [2], 106 % of control.
On to `CC(=O)OCC1OC(n2cc(CBr)nn2)C(OC(C)=O)C(OC(C)=O)C1OC(C)=O` (configuration not stated), for which the T/C was 97 % of control (dose: 3.12 mg/kg/injection, schedule: Q01DX009 (ip), vehicle: Klucel (hydroxypropylcellulose) (HPC)); 98 % of control under setting [4]; 108 % of control under setting [5]; 100 % of control under setting [6]; 98 % of control under setting [7].
Consider `CCNCCCN`, for which the T/C was 102 % of control under setting [13], 102 % of control under setting [14] and 94 % of control under setting [15].
`Cc1cc(C)c(NC(=O)Nc2cccc(Cl)c2)c(C)c1`: the T/C under setting [2] is 88 % of control and the T/C under setting [3] is 94 % of control.
As to `C=CCOCC(O)CN(C)CC1CCCO1` (configuration not stated), the T/C is 103 % of control under setting [15], 102 % of control under setting [16] and 91 % of control under setting [17].
`CCCCCC[C@H]([C@H](C)O)n1cnc2c(N)ncnc21`: the T/C reads like this: under setting [4], 93 % of control; under setting [5], 86 % of control; under setting [6], 93 % of control and 94 % of control; under setting [7], 93 % of control and 106 % of control; under setting [2], 104 % of control.
In the case of `CC(C)CC(NC(=O)CNC(=O)/C=C/c1ccco1)C(N)=O` (configuration not stated), the T/C is, setting by setting: under setting [18], 105 % of control; under setting [13], 106 % of control; under setting [11], 105 % of control; under setting [14], 100 % of control; under setting [12], 110 % of control; under setting [15], 95 % of control. For the same molecule, the T/C is, setting by setting: under setting [8], 100 % of control and 105 % of control; under setting [16], 97 % of control; under setting [9], 92 % of control; under setting [10], 98 % of control.
Regarding `NC(Cc1cc([N+](=O)[O-])ccc1CN(CCCl)CCCl)C(=O)O` (configuration not stated), the T/C was 178 % of control (dose: 1.0 mg/kg/injection, schedule: Q01DX009 (ip), vehicle: Klucel (hydroxypropylcellulose) (HPC)); 158 % of control (dose: 1.88 mg/kg/injection, schedule: Q04DX003 (ip), vehicle: Klucel (hydroxypropylcellulose) (HPC)); 193 % of control (dose: 2.0 mg/kg/injection, schedule: Q01DX009 (ip), vehicle: Klucel (hydroxypropylcellulose) (HPC)); 164 % of control (dose: 3.12 mg/kg/injection, schedule: Q01DX001 (ip), vehicle: Klucel (hydroxypropylcellulose) (HPC)); 173 % of control (dose: 3.78 mg/kg/injection, schedule: Q04DX003 (ip), vehicle: Klucel (hydroxypropylcellulose) (HPC)); 240 % of control (dose: 4.0 mg/kg/injection, schedule: Q01DX009 (ip), vehicle: Klucel (hydroxypropylcellulose) (HPC)). Further, the T/C (dose: 6.25 mg/kg/injection, schedule: Q01DX001 (ip), vehicle: Klucel (hydroxypropylcellulose) (HPC)) was 170 % of control; the T/C (dose: 7.5 mg/kg/injection, schedule: Q04DX003 (ip), vehicle: Klucel (hydroxypropylcellulose) (HPC)) was 185 % of control; the T/C (dose: 8.0 mg/kg/injection, schedule: Q01DX009 (ip), vehicle: Klucel (hydroxypropylcellulose) (HPC)) was 261 % of control; the T/C (dose: 12.5 mg/kg/injection, schedule: Q01DX001 (ip), vehicle: Klucel (hydroxypropylcellulose) (HPC)) was 186 % of control; the T/C (dose: 15.0 mg/kg/injection, schedule: Q04DX003 (ip), vehicle: Klucel (hydroxypropylcellulose) (HPC)) is 164 % of control.
On to `C[C@@H]1CCC[C@@H](NC(=O)N(CCCl)N=O)C1`, for which the T/C is, setting by setting: (dose: 4.7 mg/kg/injection, schedule: Q01DX009 (ip), vehicle: Klucel (hydroxypropylcellulose) (HPC)) 103 % of control; (dose: 18.7 mg/kg/injection, schedule: Q01DX009 (ip), vehicle: Klucel (hydroxypropylcellulose) (HPC)) 210 % of control; (dose: 18.75 mg/kg/injection, schedule: Q01DX009 (ip), vehicle: Klucel (hydroxypropylcellulose) (HPC)) 192 % of control; (dose: 37.5 mg/kg/injection, schedule: Q01DX009 (ip), vehicle: Klucel (hydroxypropylcellulose) (HPC)) 103 % of control and 229 % of control.
As for `Nc1ccn(C2OC(COC(=O)C34CC5CC(CC(C5)C3)C4)C(O)C2O)c(=O)n1` (configuration not stated), the T/C under setting [18] is 115 % of control; the T/C under setting [11] is 153 % of control; the T/C under setting [12] is 155 % of control and 191 % of control.
For `C/C=C(/C#N)c1ccccc1`, the T/C reads like this: (dose: 50.0 mg/kg/injection, schedule: Q04DX003 (ip), vehicle: saline with Tween-80) 100 % of control; (dose: 100.0 mg/kg/injection, schedule: Q04DX003 (ip), vehicle: saline with Tween-80) 97 % of control.
`CN(CCOc1ccccc1O)CCOc1ccccc1O`: the T/C by setting is: under setting [2], 111 % of control; under setting [3], 105 % of control.
On the same counts, the results for `CCOc1ccccc1NC(=O)CC(C)=O` are 100 % of control and 97 % of control.
The like results for `COc1ccc(-c2nc3cc(Cl)ccc3c(=O)o2)cc1` were, in that order, 101 % of control and 115 % of control.
Turning to `CSc1sc2ccccc2[n+]1C`, the T/C is 100 % of control under setting [15], 98 % of control under setting [16] and 91 % of control under setting [17].
As to `O=C(O)c1cc(C(=O)O)cc([N+](=O)[O-])c1`, the T/C reads like this: under setting [12], 97 % of control; under setting [8], 100 % of control.
